Results on seven compounds are retold here after paper PMC3830801, “Synthesis and Biological Evaluation of 2-Hydroxy-3-[(2-aryloxyethyl)amino]propyl 4-[(Alkoxycarbonyl)amino]benzoates” (The Scientific World Journal, 2013).

SMILES strings stand for the structures.

Data set [1] in a line: Lipophilicity determination by HPLC (capacity factor k / log k). The class given is physicochemical. The note with it: RP-HPLC, C18, MeOH 55%/H2O 45%. From the text:
A Waters Alliance 2695 XE HPLC separation module and a Waters Photodiode Array Detector 2996 (Waters Corp., Milford, MA, USA) were used. A Symmetry C18 5 μm, 4.6 × 250 mm, part number WAT054275 (Waters Corp., Milford, MA, USA) chromatographic column was used. The HPLC separation process was monitored by Empower 2 Chromatography Data Software, Waters 2009 (Waters Corp., Milford, MA, USA). A mixture of MeOH p.a. (55%) and H2O-HPLC–Milli-Q Grade (45%) was used as a mobile phase. The total flow of the column was 1.0 mL/min, injection volume 30 μL, column temperature 45°C, and sample temperature 10°C. The detection wavelength of 210 nm was chosen. The KI methanolic solution was used for the dead time (t D) determination. Retention times (t R) were measured in minutes. The capacity factors k were calculated using the Empower 2 Chromatography Data Software according to formula k = (t R − t D)/t D, where t R is the retention time of the solute, whereas t D denotes the dead time obtained using an unretained analyte. logk, calculated from the capacity factor k, is used as the lipophilicity index converted to logP scale.

Data set [2] is described as follows: pKa determination by RP-HPLC. In kind it is physicochemical. Particulars: from retention factor vs pH of mobile phase, recalculated for water medium.
The test system of data set [3] is Mycobacterium avium subsp. paratuberculosis CIT03. The data set is described as follows: In vitro antimycobacterial evaluation (alamarBlue, MIC). In kind it is cell-based. The note with it: Mycobacterium avium, 264 h; MIC/IC90, 11 days incubation, 37°C. The procedure:
(§1) Clinical isolates of Mycobacterium avium subsp. paratuberculosis CIT03 and M. intracellulare were grown in Middlebrook broth (MB), supplemented with oleic-albumin-dextrose-catalase supplement (OADC, Becton Dickinson, UK) and mycobactin J (2 μg/mL). Identification of these isolates was performed using biochemical and molecular protocols. At log phase growth, the culture (10 mL) was centrifuged at 15,000 rpm/20 min using a bench top centrifuge (Model CR 4–12, Jouan Inc., UK). Following the removal of the supernatant, the pellet was washed in fresh Middlebrook 7H9GC broth and resuspended in fresh supplemented MB (10 mL). The turbidity was adjusted to match McFarland standard no. 1 (3 × 10^8 cfu) with MB broth. A further 1 : 20 dilution of the culture was then performed in MB broth. The antimicrobial susceptibility of all four mycobacterial species was investigated in a 96-well plate format. In these experiments, sterile deionised water (300 μL) was added to all outer-perimeter wells of the plates to minimize evaporation of the medium in the test wells during incubation. Each evaluated compound (100 μL) was incubated with each of the mycobacterial species (100 μL). Dilutions of each compound were prepared in duplicate. For all synthesized compounds, final concentrations ranged from 1,000 μg/mL to 8 μg/mL. All compounds were prepared in DMSO, and subsequent dilutions were made in supplemented MB. The plates were sealed with parafilm and incubated at 37°C, for 7 days in the case of M. intracellulare and 11 days in the case of M. avium paratuberculosis. Following incubation, a 10% addition of alamarBlue (AbD Serotec) was mixed with each well, and readings at 570 nm and 600 nm were taken, initially for background subtraction and subsequently after 24 h reincubation. […] For noninterfering compounds, a blue colour in the well was interpreted as an absence of growth, and a pink colour was scored as growth. The MIC was initially defined as the lowest concentration which prevented a visual colour change from blue to pink. […] The MIC/IC90 value is routinely and widely used in bacterial assays and is a standard detection limit according to the Clinical and Laboratory Standards Institute (CLSI, http://www.clsi.org/).
A general note: Resazurin is reduced to fluorescent resorufin, in cell work by metabolically active cells.

For data set [4], the system named is Mycobacterium intracellulare. The data set is described as above. The note with it: Mycobacterium intracellulare, 168 h; MIC/IC90, 7 days incubation, 37°C. The class given is cell-based. The procedure: as §1
Data set [5] has as its system spinach chloroplasts. Briefly: Photosynthetic electron transport (PET) in spinach chloroplasts (DCPIP photoreduction). The class given is biochemical, Spinacia oleracea L. The note with it: DMSO 8% v/v. The protocol: Chloroplasts were prepared from spinach (Spinacia oleracea L.) according to Masarovičová and Král'ová [38]. The inhibition of photosynthetic electron transport (PET) in spinach chloroplasts was determined spectrophotometrically (Genesys 6, Thermo Scientific, USA), using an artificial electron acceptor 2,6-dichlorophenol-indophenol (DCIPP) according to Král'ová et al., and the rate of photosynthetic electron transport was monitored as a photoreduction of DCPIP. The measurements were carried out in phosphate buffer (0.02 mol/L, pH 7.2) containing sucrose (0.4 mol/L), MgCl2 (0.005 mol/L), and NaCl (0.015 mol/L). The chlorophyll content was 30 mg/L in these experiments, and the samples were irradiated (~100 W/m^2 with 10 cm distance) with a halogen lamp (250 W) using a 4 cm water filter to prevent warming of the samples (suspension temperature 22°C). The studied compounds were dissolved in DMSO due to their limited water solubility, and the concentration of DMSO was constant (8% (v/v)) in control as well as in amphiphile-treated samples.

Data set [6] relates to human monocytic leukaemia THP-1 cell line. The data set is described as follows: In vitro cytotoxicity assay (WST-1). In kind it is cell-based. The note with it: 24 h; for increase in LD50 relative to cytotoxicity: human, 30 μmol/L. The procedure: The human monocytic leukaemia THP-1 cell line was purchased from the European Collection of Cell Cultures (ECACC, Salisbury, UK). […] Cells were passaged at approximately one-week intervals. […] The maximum concentration of DMSO in the assays never exceeded 0.1%. Cytotoxicity of the compounds was determined using a WST-1 assay kit (Roche Diagnostics, Mannheim, Germany), as described previously. The median lethal dose values, LD50, were deduced through the production of a dose-response curve. All data from three independent experiments were evaluated using GraphPad Prism 5.00 software (GraphPad Software, San Diego, CA, USA, http://www.graphpad.com).
A general note: Formazan colour is commonly taken as a measure of viable cells.

The pKa is the pH at which an ionisable group is half protonated. What is called MIC is the lowest concentration that inhibits growth of the organism. Read a low MIC as inhibition by little substance. In data set [1], `CCCCOC(=O)Nc1ccc(C(=O)OCC(O)CNCCOc2c(OC)cccc2OC)cc1.Cl` (stereo not drawn) [Compound 21d, 2-Hydroxy-3-[2-(2,6-dimethoxyphenoxy)ethylamino]-propyl 4-(Butoxycarbonylamino)benzoate Hydrochloride] came in with a Log k of 0.4177. Also, the pKa in data set [2] was 8.58. For the same compound, the minimum inhibitory concentration (MIC) in data set [3] worked out at 59 µM; in data set [4] it was 114 µM. In data set [5], the “effect on the rate of PET (in words)” value was “significantly stimulated the rate of PET”. Also, the “increase in LD50 relative to cytotoxicity” value in data set [6] came to 61%.

For the compound `CCCCOC(=O)Nc1ccc(C(=O)OCC(O)CNCCOc2ccc(OC)cc2)cc1.Cl` (stereo not drawn) [Compound 20d, 2-Hydroxy-3-[2-(4-methoxyphenoxy)ethylamino]-propyl 4-(Butoxycarbonylamino)benzoate Hydrochloride], the Log k in data set [1] worked out at 0.4241. Besides, in data set [2], the pKa is 8.18. Also, the MIC was found to be 62 µM in data set [3] and 121 µM in data set [4]. In addition, the “effect on the rate of PET (in words)” value in data set [5] is “significantly stimulated the rate of PET”.

As to `CCCOC(=O)Nc1ccc(C(=O)OCC(O)CNCCOc2ccccc2OC)cc1.Cl` (stereo not drawn) [Compound 19c, 2-Hydroxy-3-[2-(2-methoxyphenoxy)ethylamino]-propyl 4-(Propoxycarbonylamino)benzoate Hydrochloride], the Log k in data set [1] was determined as 0.4089. Moreover, in data set [2], the pKa is 8.67. Moreover, the minimal inhibitory concentration (MIC) in data set [3] came out at 64 µM; in data set [4], 259 µM. Also, the “effect on the rate of PET (in words)” value in data set [5] is listed as “relatively strong PET stimulation”.

Consider `CCCCOC(=O)Nc1ccc(C(=O)OCC(O)CNCCOc2ccccc2OC)cc1.Cl` (stereo not drawn) [Compound 19d, 2-Hydroxy-3-[2-(2-methoxyphenoxy)ethylamino]-propyl 4-(Butoxycarbonylamino)benzoate Hydrochloride], for which the Log k in data set [1] was 0.4228. Moreover, the pKa in data set [2] is 8.73. Moreover, the results for the MIC in data set [3] and in data set [4] were 62 µM and 201 µM, respectively. For the same compound, in data set [5], the “effect on the rate of PET (in words)” value is “significantly stimulated the rate of PET”.

`CC[C@@]1(O)C(=O)OCc2c1cc1n(c2=O)Cc2cc3ccccc3nc2-1` [camptothecin, reference compound] had an LD50 in data set [6] (THP-1 cells, highest dose 30 μmol/L) of 0.16 ± 0.07 µmol/L.

Regarding `CCCOC(=O)Nc1ccc(C(=O)OCC(O)CNCCOc2ccc(OC)cc2)cc1.Cl` (stereo not drawn) [Compound 20c, 2-Hydroxy-3-[2-(4-methoxyphenoxy)ethylamino]-propyl 4-(Propoxycarbonylamino)benzoate Hydrochloride], the Log k in data set [1] turned out to be 0.4108. The pKa in data set [2] is 7.99. The MIC in data set [3] and in data set [4] was 259 µM throughout. Besides, in data set [5], the “effect on the rate of PET (in words)” value is “relatively strong PET stimulation”.

`CCCCOC(=O)Nc1ccc(C(=O)OCC(O)CNCCOc2ccc(F)cc2)cc1.Cl` (stereo not drawn) [Compound 23d, 3-[2-(4-Fluorophenoxy)ethylamino]-2-hydroxypropyl 4-(Butoxycarbonylamino)benzoate Hydrochloride] showed a Log k in data set [1] of 0.4365. Moreover, in data set [2], the pKa was 8.08. For the same compound, the MIC in data set [3] was determined as 64 µM; in data set [4] it was 258 µM. The “effect on the rate of PET (in words)” value in data set [5] was “significantly stimulated the rate of PET”. In addition, in data set [6], the “increase in LD50 relative to cytotoxicity” value is on record as 96%.
